Assay results reported in ChEMBL document CHEMBL4304835 (ACS Med Chem Lett, 2019).

Assays:
[1] = molecular target: Bromodomain-containing protein 4 (Homo sapiens, UniProt O60885); experiment: Displacement of Bio-JQ1 from recombinant human His6 tagged BRD4 bromodomain 1 by alphascreen assay
[2] = molecular target: Transcription initiation factor TFIID subunit 1 (Homo sapiens, UniProt P21675); experiment: Displacement of biotinylated probe from human TAF1 bromodomain 2 (1522 to 1656 residues) expressed in Escherichia coli BL21 (DE3) by alphascreen assay
Transcription initiation factor TFIID subunit 1, sequence (P21675 whole entry, the tested form may be a part): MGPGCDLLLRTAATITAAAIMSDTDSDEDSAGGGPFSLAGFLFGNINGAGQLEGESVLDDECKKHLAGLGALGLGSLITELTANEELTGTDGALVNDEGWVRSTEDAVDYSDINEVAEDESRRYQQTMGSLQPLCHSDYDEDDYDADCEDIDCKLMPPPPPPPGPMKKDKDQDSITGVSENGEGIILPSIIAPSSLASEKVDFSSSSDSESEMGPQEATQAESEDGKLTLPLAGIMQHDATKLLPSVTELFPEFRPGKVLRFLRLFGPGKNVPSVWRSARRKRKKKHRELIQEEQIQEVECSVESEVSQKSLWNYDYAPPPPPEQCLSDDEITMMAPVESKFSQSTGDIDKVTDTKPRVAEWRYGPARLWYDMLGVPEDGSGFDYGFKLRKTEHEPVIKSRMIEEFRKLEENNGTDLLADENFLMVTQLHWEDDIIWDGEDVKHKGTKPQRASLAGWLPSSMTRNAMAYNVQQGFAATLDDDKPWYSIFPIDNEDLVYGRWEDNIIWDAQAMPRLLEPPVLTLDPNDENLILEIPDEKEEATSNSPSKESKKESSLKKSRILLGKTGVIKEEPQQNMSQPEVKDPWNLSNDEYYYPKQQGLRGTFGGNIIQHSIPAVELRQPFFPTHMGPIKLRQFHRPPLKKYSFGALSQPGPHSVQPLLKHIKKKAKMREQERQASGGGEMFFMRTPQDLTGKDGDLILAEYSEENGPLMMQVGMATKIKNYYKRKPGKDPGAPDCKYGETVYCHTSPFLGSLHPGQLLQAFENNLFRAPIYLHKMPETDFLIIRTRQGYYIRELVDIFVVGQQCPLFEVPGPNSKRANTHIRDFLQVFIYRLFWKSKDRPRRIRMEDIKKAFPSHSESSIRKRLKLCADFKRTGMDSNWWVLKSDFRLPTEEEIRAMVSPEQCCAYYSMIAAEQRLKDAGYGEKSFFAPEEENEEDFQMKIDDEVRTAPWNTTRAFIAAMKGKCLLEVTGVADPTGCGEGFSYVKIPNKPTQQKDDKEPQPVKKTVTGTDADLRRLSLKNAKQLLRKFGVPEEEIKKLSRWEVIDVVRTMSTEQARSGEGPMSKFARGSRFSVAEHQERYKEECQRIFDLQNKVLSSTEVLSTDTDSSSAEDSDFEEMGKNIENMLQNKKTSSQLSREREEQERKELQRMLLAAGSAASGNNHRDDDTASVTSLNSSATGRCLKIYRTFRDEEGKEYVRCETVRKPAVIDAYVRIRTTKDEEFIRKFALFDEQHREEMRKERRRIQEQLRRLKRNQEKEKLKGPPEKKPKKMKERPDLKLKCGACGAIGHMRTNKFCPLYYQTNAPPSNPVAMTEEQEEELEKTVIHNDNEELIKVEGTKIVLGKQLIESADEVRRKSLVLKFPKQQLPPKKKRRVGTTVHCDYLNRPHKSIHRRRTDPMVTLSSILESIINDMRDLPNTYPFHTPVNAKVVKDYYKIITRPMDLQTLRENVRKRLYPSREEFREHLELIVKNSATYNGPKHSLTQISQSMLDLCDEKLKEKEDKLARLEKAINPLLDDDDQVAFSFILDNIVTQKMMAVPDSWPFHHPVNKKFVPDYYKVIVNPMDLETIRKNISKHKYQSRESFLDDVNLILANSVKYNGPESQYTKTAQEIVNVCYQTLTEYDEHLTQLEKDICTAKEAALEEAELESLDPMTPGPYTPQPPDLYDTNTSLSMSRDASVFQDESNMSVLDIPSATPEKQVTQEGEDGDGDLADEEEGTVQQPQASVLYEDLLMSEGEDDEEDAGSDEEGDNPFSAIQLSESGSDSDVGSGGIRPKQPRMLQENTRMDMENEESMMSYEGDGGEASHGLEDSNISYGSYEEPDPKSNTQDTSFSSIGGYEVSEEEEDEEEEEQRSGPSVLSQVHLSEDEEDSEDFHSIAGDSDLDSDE

Structure (SMILES) | IC50 [1] [nM] | IC50 [2] [nM]
CC[C@@H]1C(=O)N(C)c2cnc(Nc3ccc(C(=O)NC4CCN(C)CC4)cc3OC3CCCC3)nc2N1C1CCCC1 | 33 | 100
C[C@@H]1C(=O)N(C)c2cnc(Nc3ccc(C(=O)NC4CCN(C)CC4)cc3)nc2N1C1CCCC1 | 68 | 87
CC(C)Oc1cc(C(=O)NC2CCN(C)CC2)ccc1Nc1ccc2c(n1)N(C1CCCC1)[C@H](C)C(=O)N2C | 130 | 89
COc1cc(C(=O)N2CCC(O)CC2)ccc1Nc1ccc2c(n1)N(C1CCOCC1)[C@H](C)C(=O)N2C | 140 | 38
COc1cc(C(=O)N2CCC(O)CC2)ccc1Nc1cc2c(cc1F)N(C)C(=O)[C@@H](C)N2C1CCCC1 | 680 | 4600
CC[C@@H]1C(=O)N(C)c2cnc(Oc3ccc(C(=O)NC4CCN(C)CC4)cc3OC)nc2N1C1CCCC1 | 620 | > 10000
COc1cc(C(=O)N2CCC(O)CC2)ccc1Nc1ccc2c(c1)N(C1CCCC1)[C@H](C)C(=O)N2C | 110 | 580
C[C@@H]1C(=O)N(C)c2ccc(Nc3ccc(C(=O)NC4CCN(C)CC4)cc3)nc2N1C1CCCC1 | 190 | 340
C[C@@H]1C(=O)N(C)c2ccc(Nc3ccc(C(=O)NC4CCN(C)CC4)cc3OC3CCCC3)nc2N1C1CCCC1 | 48 | 31
CC[C@@H]1C(=O)Nc2cnc(Nc3ccc(C(=O)NC4CCN(C)CC4)cc3OC)nc2N1C1CCCC1 | > 10000 | > 10000
C=CCCN1C(=O)[C@@H](C)N(C2CCOCC2)c2nc(Nc3ccc(C(=O)NC4CCN(C)CC4)cc3OC)ccc21 | > 10000 | 82
CC[C@@H]1C(=O)N(C)c2cnc(N(C)c3ccc(C(=O)NC4CCN(C)CC4)cc3OC)nc2N1C1CCCC1 | 100 | > 10000
COc1cc(C(=O)N2CCC(O)CC2)ccc1Nc1ccc2c(n1)N(C1CCCCCC1)[C@H](C)C(=O)N2C | 220 | 240
COc1cc(C(=O)N2CCC(O)CC2)ccc1Nc1ccc2c(n1)N(C1CCCC1)[C@H](C)C(=O)N2C | 47 | 93
CC[C@@H]1C(=O)N(CC)c2cnc(Nc3ccc(C(=O)NC4CCN(C)CC4)cc3OC)nc2N1C1CCCC1 | 690 | 410
CC[C@@H]1C(=O)N(C)c2cnc(Nc3ccc(C(=O)NC4CCN(C)CC4)cc3OC3CCC3)nc2N1C1CCCC1 | 62 | 110

Structure (SMILES) | IC50 [1] [nM] | IC50 [2] [nM]
COc1cc(C(=O)NC2CCN(C)CC2)ccc1Nc1ccc2c(n1)N1CCCC[C@@H]1C(=O)N2C | 2700 | 63
COc1cc(C(=O)N2CCC(O)CC2)ccc1Nc1ccc2c(n1)N1CCCC[C@@H]1C(=O)N2C | 7200 | 210
COc1cc(C(=O)N2CCC(O)CC2)ccc1Nc1ccc2c(n1)N(Cc1ccccc1)[C@H](C)C(=O)N2C | 240 | 720
CC[C@@H]1C(=O)N(C)c2ccc(Nc3ccc(C(=O)NC4CCN(C)CC4)cc3OC)nc2N1C1CCCC1 | 150 | 450
COc1cc(C(=O)N2CCC(O)CC2)ccc1Nc1ccc2c(c1C)N(C)[C@H](C)C(=O)N2C | > 10000 | 980
COc1cc(C(=O)N2CCC(O)CC2)ccc1Nc1ccc2c(n1)N(C1CCC(C)(C)C1)[C@H](C)C(=O)N2C (mixture of isomers) | 140 | 300
COc1cc(C(=O)N2CCC(O)CC2)ccc1Nc1cc2c(cc1OC)N(C)C(=O)[C@@H](C)N2C1CCCC1 | 7300 | 750
COc1cc(C(=O)N2CCC(O)CC2)ccc1Nc1ccc2c(n1)N(C1CCCCC1)[C@H](C)C(=O)N2C | 150 | 72
CC[C@@H]1C(=O)N(C)c2cnc(Nc3ccc(C(=O)NC4CCN(C)CC4)cc3)nc2N1C1CCCC1 | 280 | 150
C=CCCN1C(=O)[C@@H](C)N(C2CCCC2)c2nc(Nc3ccc(C(=O)N4CCC(O)CC4)cc3OC)ccc21 | 4400 | 570
COc1cc(C(=O)NC2CCN(C)CC2)ccc1Nc1ccc2c(n1)N(C1CCOCC1)[C@H](C)C(=O)N2C | 49 | < 10
COc1cc(C(=O)N2CCC(O)CC2)ccc1Nc1cc2c(cc1C)N(C)C(=O)[C@@H](C)N2C1CCCC1 | 2100 | > 10000
COc1cc(C(=O)NC2CCN(C)CC2)ccc1Nc1ccc2c(n1)N(C1CCCC1)[C@H](C)C(=O)N2C | 37 | 16
CC[C@@H]1C(=O)N(C)c2cnc(Nc3ccc(C(=O)NC4CCN(C)CC4)cc3OC(C)C)nc2N1C1CCCC1 | 63 | 210
CC(C)Oc1cc(C(=O)NC2CCN(C)CC2)ccc1Nc1ncc2c(n1)N(C1CCCC1)[C@H](C)C(=O)N2C | 220 | 320
C=CCN1C(=O)[C@@H](C)N(C2CCCC2)c2nc(Nc3ccc(C(=O)N4CCC(O)CC4)cc3OC)ccc21 | 4500 | 1700
